Results on 1 molecule are retold here after paper PMC9569447 (International Journal of Molecular Sciences, 2022).

Where two headings read alike, the source gives them in different places.

For data set [1] the following is noted: rat, in vivo, sc; cited from earlier work.
For data set [2] the following is noted: native OXT; cited from earlier work. The source says:
This OXT analog is a full agonist at OXT receptor, and it addressed some of the limitations of using OXT as a weight loss therapeutic.

The conditions of data set [3]: mouse, in vivo, sc; cited from earlier work.
For data set [4], the system named is diet-induced obese (DIO) Sprague Dawley rats. Description: Post-treatment serum levels after the 22-day treatment. Format: in vivo, rat. The note with it: serum, 2 h post final injection after 22 days; mean ± SEM; n = 6 (Oxytocin n = 4). The procedure: Cardiac puncture was used to collect blood for analysis 2 h post final injection. Commercially available enzyme-linked immunosorbent assays (ELISA) were used for quantitative assessment of leptin (cat. # EZRL-83K; MilliporeSigma, Burlington, MA, USA), insulin (cat. # EZRMI-13K; MilliporeSigma, Burlington, MA, USA), and adiponectin (cat. # EZRAPD-62K MilliporeSigma, Burlington, MA, USA). Serum samples were diluted 1:500 for the adiponectin ELISA using the sample diluent provided with the kit. All ELISAs were completed following the manufacturers recommendations. Levels of glucose, cholesterol (total, HDL, and calculated LDL), triglycerides, ALT, and AST were determined in the serum on a Modular P chemistry analyzer (Roche Diagnostics, Risch-Rotkreuz, Switzerland) by the University of Washington Nutrition and Obesity Research Center’s Analytic Core (Seattle, WA, USA).

As a reminder, the Cmax is the peak of the concentration-time curve. By Tmax is commonly meant the time from dosing to the highest level. With `CC[C@H](C)[C@@H]1NC(=O)[C@H](Cc2ccc(O)cc2)NC(=O)[C@@H](N)CSSC[C@@H](C(=O)N2CCC[C@H]2C(=O)N[C@@H](CC(C)C)C(=O)NCC(N)=O)NC(=O)[C@H](CC(N)=O)NC(=O)[C@H](CCC(N)=O)NC1=O` [OXT, oxytocin], in data set [1], the CLplasma was 17.1 mL/min/kg, the T1/2 was 7.2 min and the Vd is 0.085 L/kg. Moreover, in data set [2], the half-life in vivo was ~5 min. In addition, in data set [3], the Cmax was 216 nM, the “Free Cmax” value is listed as 191 nM, the T1/2 is 30 min and the Tmax is 15 min. Moreover, in data set [4], the ALT worked out at 40 ± 5 U/L and the AST is 128 ± 22 U/L.
